From ChEMBL document CHEMBL1125692 (J Med Chem, 1991)

Columns and labels:
D(2) dopamine receptor [1] = target: T1, D(2) dopamine receptor (Rattus norvegicus, UniProt P61169); assay: Compound was evaluated for binding affinity towards dopamine receptor D2 in striatal membranes, using [3H]- spiperone as radioligand in the presence of sodium chloride; type: cell membranes
D(2) dopamine receptor [2] = target: T1, D(2) dopamine receptor; assay: Displacement of [3H]- spiperone from dopamine receptor D2 of striatal membranes without sodium chloride
[3] = target: T2, Adrenergic receptor alpha-2 (Rattus norvegicus, UniProt P22086+P19328+P22909); assay: binding affinity towards alpha-2 adrenergic receptor, using [3H]- atipamezole as radioligand from rat frontal cortex membranes; type: tissue-based
T2 sequence (P22086 whole entry): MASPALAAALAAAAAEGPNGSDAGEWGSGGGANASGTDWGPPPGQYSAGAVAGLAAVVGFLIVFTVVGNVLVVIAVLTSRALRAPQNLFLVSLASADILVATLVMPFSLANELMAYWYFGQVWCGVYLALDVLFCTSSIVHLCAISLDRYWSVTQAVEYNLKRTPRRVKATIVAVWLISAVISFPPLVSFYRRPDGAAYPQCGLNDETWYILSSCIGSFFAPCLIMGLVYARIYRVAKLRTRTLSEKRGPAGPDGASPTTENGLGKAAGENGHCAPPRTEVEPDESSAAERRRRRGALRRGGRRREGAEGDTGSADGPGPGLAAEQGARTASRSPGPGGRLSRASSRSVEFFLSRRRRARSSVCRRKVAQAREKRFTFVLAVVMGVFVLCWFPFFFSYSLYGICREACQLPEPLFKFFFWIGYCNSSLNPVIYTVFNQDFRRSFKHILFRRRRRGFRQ
T2 sequence (P19328 whole entry): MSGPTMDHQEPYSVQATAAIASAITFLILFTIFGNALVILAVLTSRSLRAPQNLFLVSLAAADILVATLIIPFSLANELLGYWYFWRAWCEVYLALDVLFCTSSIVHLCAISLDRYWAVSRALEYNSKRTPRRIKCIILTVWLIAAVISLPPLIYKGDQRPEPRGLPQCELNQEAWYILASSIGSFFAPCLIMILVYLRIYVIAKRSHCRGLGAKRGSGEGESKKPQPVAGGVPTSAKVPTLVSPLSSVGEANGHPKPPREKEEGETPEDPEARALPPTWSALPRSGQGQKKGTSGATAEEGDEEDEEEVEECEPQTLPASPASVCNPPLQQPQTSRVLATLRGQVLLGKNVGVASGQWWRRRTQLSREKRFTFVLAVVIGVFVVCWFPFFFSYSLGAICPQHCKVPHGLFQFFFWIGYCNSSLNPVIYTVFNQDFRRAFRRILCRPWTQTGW
T2 sequence (P22909 whole entry): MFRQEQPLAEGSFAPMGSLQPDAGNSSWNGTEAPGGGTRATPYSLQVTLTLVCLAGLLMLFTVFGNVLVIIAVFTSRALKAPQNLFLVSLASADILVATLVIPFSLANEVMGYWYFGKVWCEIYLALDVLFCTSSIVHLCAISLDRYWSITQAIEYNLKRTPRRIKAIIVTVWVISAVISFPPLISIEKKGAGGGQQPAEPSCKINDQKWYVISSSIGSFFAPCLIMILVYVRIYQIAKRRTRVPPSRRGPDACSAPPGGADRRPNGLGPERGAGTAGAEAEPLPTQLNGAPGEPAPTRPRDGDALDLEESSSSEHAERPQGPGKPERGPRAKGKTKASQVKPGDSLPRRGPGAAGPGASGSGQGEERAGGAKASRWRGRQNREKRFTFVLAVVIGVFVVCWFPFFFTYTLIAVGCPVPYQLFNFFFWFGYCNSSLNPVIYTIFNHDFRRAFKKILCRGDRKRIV

T1 sequence (P61169 whole entry): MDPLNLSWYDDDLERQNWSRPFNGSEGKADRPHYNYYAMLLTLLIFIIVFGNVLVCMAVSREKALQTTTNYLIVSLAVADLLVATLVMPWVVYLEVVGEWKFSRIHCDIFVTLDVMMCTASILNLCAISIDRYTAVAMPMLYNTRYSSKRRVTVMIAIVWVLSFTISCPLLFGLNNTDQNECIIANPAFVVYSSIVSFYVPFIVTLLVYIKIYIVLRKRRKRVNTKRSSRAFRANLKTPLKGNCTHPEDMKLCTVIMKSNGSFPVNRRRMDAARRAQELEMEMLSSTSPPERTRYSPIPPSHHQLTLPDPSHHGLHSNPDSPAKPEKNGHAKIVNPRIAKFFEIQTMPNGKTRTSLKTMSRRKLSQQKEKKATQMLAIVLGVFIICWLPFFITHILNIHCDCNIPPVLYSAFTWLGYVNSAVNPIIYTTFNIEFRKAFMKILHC

SMILES: CCN1CCC[C@H]1CNC(=O)c1cc(Br)cc(OC)c1OC
- Ki (D(2) dopamine receptor [1]): 0.2 nM
- Ki (D(2) dopamine receptor [2]): 0.76 nM

SMILES: CCN1CCC[C@H]1CNC(=O)c1cc(CCF)cc(OC)c1OC
- Ki (D(2) dopamine receptor [1]): 1.41 nM
- Ki (D(2) dopamine receptor [2]): 5.27 nM

SMILES: CCCc1cc(OC)c(OC)c(C(=O)NC[C@@H]2CCCN2CC)c1
- Ki (D(2) dopamine receptor [2]): 6.98 nM

SMILES: CCN1CCC[C@@H]1CNC(=O)c1c(O)c(CCCF)cc(OC)c1OC
- Ki (D(2) dopamine receptor [2]): > 10000 nM

SMILES: CCN1CCC[C@H]1CNC(=O)c1c(O)c(CCF)cc(OC)c1OC
- Ki (D(2) dopamine receptor [1]): 0.24 nM
- Ki [3]: 9.5 nM
- Ki (D(2) dopamine receptor [2]): 0.77 nM

SMILES: CCN1CCC[C@H]1CNC(=O)c1cc(CCCF)cc(OC)c1OC
- Ki (D(2) dopamine receptor [1]): 1.17 nM
- Ki (D(2) dopamine receptor [2]): 4.4 nM

SMILES: CCN1CCC[C@H]1CNC(=O)c1c(O)c(CCCF)cc(OC)c1OC
- Ki (D(2) dopamine receptor [1]): 0.25 nM
- Ki [3]: 11.1 nM
- Ki (D(2) dopamine receptor [2]): 0.8 nM

SMILES: CCN1CCC[C@H]1CNC(=O)c1cc(I)cc(OC)c1OC [EPIDEPRIDE]
- Ki (D(2) dopamine receptor [1]): 0.27 nM
- Ki [3]: 5 nM

SMILES: CCCc1cc(OC)c(OC)c(C(=O)NC[C@@H]2CCCN2CC)c1O
- Ki (D(2) dopamine receptor [2]): 1.28 nM

SMILES: CCN1CCC[C@H]1CNC(=O)c1cccc(OC)c1OC
- Ki (D(2) dopamine receptor [2]): 66 nM

SMILES: CCN1CCC[C@@H]1CNC(=O)c1cc(CCF)cc(OC)c1OC
- Ki (D(2) dopamine receptor [2]): > 10000 nM
